Experimental data taken from US20250228855A1, “PYRAZINAMIDE COMPOUNDS” (The General Hospital Corporation, priority 2022, published 2025).
Counter-ions that a name gives are not always drawn. Like-named read-outs stand apart in the source and are kept apart here.

Experiments:
[1] = test system: luciferase-expressing P. berghei ANKA sporozoites; assay: P. berghei liver stage assay in HuH7 cells; type: cell-based; settings: Plasmodium berghei, Huh-7; HuH7 hepatocytes, ~44 hpi, luminescence
Experimental: (§1) Halofuginone and derivatives are active against liver stage Plasmodium parasites. NCP26 and MAT436 were evaluated in a tissue culture-based P. berghei liver stage model. Specifically, various test compounds were added in dose-response to human hepatocytes (HuH7) followed by infection with luciferase-expressing P. berghei ANKA sporozoites, which enabled quantification of parasite load by luminescence. In parallel, host cell viability was also assessed to provide an estimate of cellular selectivity.
(§2) P. berghei Liver Stage and HuH7 Host Hepatocyte Growth Assay: HuH7 cells (Sigma) were cultured in DMEM+L-Glutamine (Gibco) supplemented with 10% (v/v) heat-inactivated FBS (Sigma) and 1% (v/v) antibiotic/antimycotic (Sigma). Hepatocyte cultures were maintained in a standard tissue culture incubator at 37° C. Anopheles mosquitoes infected with luciferase-expressing P. berghei ANKA sporozoites were obtained from the Sporocore at the University of Georgia. […] At ˜44 hpi, HuH7 cell viability and P. berghei parasite load was assessed using CellTiter-Fluor (Promega) and Bright-Glo (Promega), respectively, using an Envision plate reader. Relative fluorescence and luminescence signal intensities were normalized to the negative control, 1% DMSO. EC50 values were determined using GraphPad Prism through fitting data to a dose response curve. […]

PfcProRS = PfcProRS (Plasmodium falciparum, UniProt Q8I5R7); assay: TR-FRET ligand displacement assay with tracer MAT379, PfcProRS; type: binding
PfcProRS, sequence (Q8I5R7 whole entry): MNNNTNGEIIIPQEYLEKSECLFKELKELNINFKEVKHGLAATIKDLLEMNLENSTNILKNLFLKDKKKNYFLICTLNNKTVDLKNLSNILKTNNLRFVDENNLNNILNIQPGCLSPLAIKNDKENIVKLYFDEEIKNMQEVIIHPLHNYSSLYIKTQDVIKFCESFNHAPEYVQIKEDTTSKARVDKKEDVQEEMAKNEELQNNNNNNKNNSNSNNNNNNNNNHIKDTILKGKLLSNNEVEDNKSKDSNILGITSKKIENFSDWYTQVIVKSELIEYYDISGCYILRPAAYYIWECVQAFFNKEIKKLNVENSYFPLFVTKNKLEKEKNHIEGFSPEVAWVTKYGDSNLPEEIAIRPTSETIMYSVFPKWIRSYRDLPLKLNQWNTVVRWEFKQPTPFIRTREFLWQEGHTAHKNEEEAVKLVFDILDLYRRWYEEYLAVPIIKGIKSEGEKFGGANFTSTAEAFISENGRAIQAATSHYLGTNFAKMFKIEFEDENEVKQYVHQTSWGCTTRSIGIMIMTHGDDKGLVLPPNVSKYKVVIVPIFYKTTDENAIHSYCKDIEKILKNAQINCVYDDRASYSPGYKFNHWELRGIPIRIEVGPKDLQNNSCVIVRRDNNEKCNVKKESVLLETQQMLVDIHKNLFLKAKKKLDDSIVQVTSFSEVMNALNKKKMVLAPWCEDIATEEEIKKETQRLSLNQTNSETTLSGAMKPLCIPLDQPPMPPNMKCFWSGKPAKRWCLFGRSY

[2] = test system: halofuginone-induced (HFG-induced) P. falciparum; assay: P. falciparum asexual blood stage growth assay, halofuginone-induced parasites; settings: Plasmodium falciparum
Experimental: (§3) Asexual blood stage (ABS) P. falciparum parasites were treated with test compounds at varying concentrations for 72 h, followed by quantification of parasite growth by SYBR Green staining.
(§4) P. falciparum Asexual Blood Stage Growth Assay: This assay was performed as previously described.

P. falciparum Dd2-2D4 = assay: P. falciparum asexual blood stage growth assay, wild-type Dd2-2D4; settings: Plasmodium falciparum; for IC50: DD2, read-out: IC50 for Dd2-2D4
Experimental: as §3, §4

[3] = Storage stability of MAT436·HBr (LC-MS); type: physicochemical
HsProRS = target: T1, HsProRS (Homo sapiens, UniProt P07814); assay: TR-FRET ligand displacement assay with tracer MAT379, HsProRS; type: binding
T1 sequence (P07814 1007-1512 limits assumed): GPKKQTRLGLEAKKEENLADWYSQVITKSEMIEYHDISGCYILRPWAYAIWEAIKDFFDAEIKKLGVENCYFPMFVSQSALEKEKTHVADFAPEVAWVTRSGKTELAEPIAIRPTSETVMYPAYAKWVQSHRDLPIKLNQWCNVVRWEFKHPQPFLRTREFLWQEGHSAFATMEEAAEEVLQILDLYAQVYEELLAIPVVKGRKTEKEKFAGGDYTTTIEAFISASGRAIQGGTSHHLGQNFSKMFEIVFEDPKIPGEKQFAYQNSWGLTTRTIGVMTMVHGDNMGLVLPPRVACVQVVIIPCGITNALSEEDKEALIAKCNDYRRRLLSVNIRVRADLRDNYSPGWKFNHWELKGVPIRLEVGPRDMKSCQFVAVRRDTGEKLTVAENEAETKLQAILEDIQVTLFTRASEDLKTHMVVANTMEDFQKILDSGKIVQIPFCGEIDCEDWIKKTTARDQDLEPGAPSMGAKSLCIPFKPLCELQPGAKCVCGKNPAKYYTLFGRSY

HuH7 cells = assay: HuH7 host hepatocyte viability assay; type: cell-based; settings: Homo sapiens, Huh-7; host cell viability
Experimental: as §1, §2

[4] = PfcProRS (KD [nM]) +proline, 100 μM Pro
[5] = DD2, 72 h, read-out: Dd2 (EC50 [nM]) Halofuginone-induced
[6] = DD2, 72 h, read-out: Dd2 (EC50 [nM]) wt
[7] = DD2, read-out: EC50 against Dd2-2D4 wildtype parasites
[8] = absence of proline, read-out: KD for HsProRS
[9] = no proline, no ATP, read-out: HsProRS (KD [nM]) −
[10] = absence of proline, read-out: KD for PfcProRS
[11] = no proline, no ATP, read-out: PfcProRS (KD [nM]) −
[12] = read-out: HsProRS (KD [nM]) +proline, 100 μM Pro
[13] = read-out: PfcProRS (KD [nM]) +proline, 100 μM Pro
[14] = PfcProRS (KD [nM]) +ATP, 500 μM ATP

Compound | Kd (PfcProRS; [4]) [nM] | EC50 [2, 5] [nM] | EC50 (P. falciparum Dd2-2D4; [6]) [nM] | Kd (HsProRS) [nM] | Kd (HsProRS; [8]) [nM] | Kd (HsProRS; [9]) [nM] | Kd (PfcProRS; [10]) [nM] | Kd (PfcProRS; [11]) [nM] | further results
O=C(C[C@H]1NCCC[C@@H]1OC(=O)NS(=O)(=O)N1CCN(C(=O)Nc2nccnc2C(=O)NC2Cc3ccccc3C2)CC1)Cn1cnc2cc(Br)c(Cl)cc2c1=O (relative stereo) [MAT436 (34), trans-2-(3-(7-bromo-6-chloro-4-oxoquinazolin-3(4H)-yl)-2-oxopropyl)piperidin-3-yl ((4-((3-((2,3-dihydro-1H-inden-2-yl)carbamoyl)pyrazin-2-yl)carbamoyl)piperazin-1-yl)sulfonyl)carbamate hydrobromide] | 0.722 | 251 | 6.76 |  |  |  |  |  | EC50 [1]: 0.186 µM; fold affinity for PfcProRS compared to halofuginone in the absence of ATP (PfcProRS; absence of ATP): > 10^4 fold; Kd (PfcProRS; absence of ATP, read-out: KD for PfcProRS): 0.375 nM; EC50 (P. falciparum Dd2-2D4; [7]): 6.8 nM; hydrolyzed at carbamate carbonyl ([3]; 10 mM stock solution in DMSO, 8 days at room temperature, LC-MS): ~36%; stability of neat compound ([3]; neat, 4° C.): stable indefinitely
Nc1ncnc2c1ncn2[C@@H]1O[C@H](CNS(=O)(=O)NC(=O)OCCn2cnc3ccccc3c2=O)[C@@H](O)[C@H]1O [MAT511, 2-(4-oxoquinazolin-3(4H)-yl)ethyl (N-(((2R,3S,4R,5R)-5-(6-amino-9H-purin-9-yl)-3,4-dihydroxytetrahydrofuran-2-yl)methyl)sulfamoyl)carbamate] | 1810 | 52.2 | 76.5 | > 5090 | > 10000 | > 8720 | > 10000 | > 2860 | IC50 (P. falciparum Dd2-2D4): 0.0739 µM
O=C(NS(=O)(=O)NCC1CCN(C(=O)Nc2nccnc2C(=O)NC2Cc3ccccc3C2)CC1)OCCn1cnc2ccccc2c1=O [MAT514, 2-(4-oxoquinazolin-3(4H)-yl)ethyl (N-((1-((3-((2,3-dihydro-1H-inden-2-yl)carbamoyl)pyrazin-2-yl)carbamoyl)piperidin-4-yl)methyl)sulfamoyl)carbamate] | 32.6 | 7040 | 4560 | 372 | 277 |  | 35.2 |  | IC50 (P. falciparum Dd2-2D4): 4.56 µM
O=C(CCCCCNC(=O)Nc1ccccc1)NC1CCN(C(=O)Nc2nccnc2C(=O)NC2Cc3ccccc3C2)CC1 [MAT515] | 46.6 | 3300 | 381 | 504 | 169 |  | 70.4 |  | 
O=C(CCCCCNC(=O)Nc1ccccc1)NCC1CCN(C(=O)Nc2nccnc2C(=O)NC2Cc3ccccc3C2)CC1 [MAT516] |  | 4760 | 636 |  |  | 402 |  | 94.1 | Kd (HsProRS; [12]): 159 nM; Kd (PfcProRS; [13]): 60.8 nM
O=C(CCCCCNC(=S)Nc1ccccc1)NCC1CCN(C(=O)Nc2nccnc2C(=O)NC2Cc3ccccc3C2)CC1 [MAT517] |  | 6840 | 2680 |  |  | 865 |  | 95.6 | Kd (HsProRS; [12]): 1680 nM; Kd (PfcProRS; [13]): 80.2 nM
O=C(CCCCCNC(=S)NC1CCCCC1)NCC1CCN(C(=O)Nc2nccnc2C(=O)NC2Cc3ccccc3C2)CC1 [MAT518] | 288 | 1500 | 1820 | > 5090 | 2760 |  | 372 |  | selectivity for PfcProRS compared to HsProRS (PfcProRS): ~7 fold
CC(C)(C)OC(=O)N1CCC[C@@H](OC(=O)NS(=O)(=O)N2CCN(C(=O)Nc3nccnc3C(=O)NC3Cc4ccccc4C3)CC2)[C@@H]1CC(O)Cn1cnc2cc(Br)c(Cl)cc2c1=O (stereo partly drawn) [MAT582, tert-butyl (2S,3R)-2-(3-(7-bromo-6-chloro-4-oxoquinazolin-3(4H)-yl)-2-hydroxypropyl)-3-((((4-((3-((2,3-dihydro-1H-inden-2-yl)carbamoyl)pyrazin-2-yl)carbamoyl)piperazin-1-yl)sulfonyl)carbamoyl)oxy)piperidine-1-carboxylate] | 2740 | > 10000 | 8660 | 8.42 |  | 265 |  | 2490 | 
O=C(NS(=O)(=O)N1CCN(C(=O)Nc2nccnc2C(=O)NC2Cc3ccccc3C2)CC1)O[C@H]1CCCN[C@@H]1CC(O)Cn1cnc2cc(Br)c(Cl)cc2c1=O (stereo partly drawn) [MAT583, (2R,3S)-2-(3-(7-bromo-6-chloro-4-oxoquinazolin-3(4H)-yl)-2-hydroxypropyl)piperidin-3-yl ((4-((3-((2,3-dihydro-1H-inden-2-yl)carbamoyl)pyrazin-2-yl)carbamoyl)piperazin-1-yl)sulfonyl)carbamate 2,2,2-trifluoroacetate] | 19 | 7750 | 2270 | 150 |  | 687 |  | 187 | 
O=C(NC1Cc2ccccc2C1)c1nccnc1NC(=O)N1CCCCC1 [NCP26 (3), N-(2,3-dihydro-1H-inden-2-yl)-3-(piperidine-1-carboxamido)pyrazine-2-carboxamide] | 2.52 | 120 | 67.4 |  |  | 271 |  | 130 | Kd (HsProRS; read-out: HsProRS (KD [nM]) +ATP, +ATP): 678 nM; Kd (HsProRS; [12]): 0.351 nM; EC50 (HuH7 cells): > 2.5 µM; EC50 [1]: 0.249 µM; Kd (PfcProRS; [14]): 103 nM; EC50 ([2]; read-out: EC50 in halofuginone-induced parasites): 120 nM; EC50 (P. falciparum Dd2-2D4; [7]): 67.4 nM
O=C(C[C@H]1NCCC[C@@H]1O)Cn1cnc2cc(Br)c(Cl)cc2c1=O [halofuginone(1), halofuginone, reference compound] | > 3000 | 19.2 | 0.519 | 2040 |  | 1160 |  | > 3000 | Kd (HsProRS; HsProRS (KD [nM]) +ATP, +ATP): 0.225 nM; Kd (PfcProRS; [14]): 0.503 nM
